Test [1] relates to RNA Polymerase II Serine 5 phosphorylation (Rpb1 CTD, downstream substrate of CDK7) in A549 cells. Kind of test: Imaging-based cellular RNA PolII Ser5 phosphorylation assay in A549 cells. Type of test: cell-based, human. Conditions: wild-type CDK7, RNA PolII Ser5 phosphorylation, averaged over all measurements; for IC50: Homo sapiens, A549, A549 cells, read-out: CDK7_A549 Wild-type CDK7 (pIC50) (converted); for CDK7_A549 Wild-type CDK7 (pIC50): A549 cells. Summed up: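 A549 cells, seeded 1000/well in DMEM with 1% FBS and cultured 20 h, were treated with compound for 3 h at 37 °C. Ser5-phospho-Rpb1 CTD detected by immunofluorescence imaging after fixation and methanol permeabilization; IC50 from curve fit normalized to DMSO and 10 μM reference-compound controls.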

Test [2] has as its system RNA Polymerase II Serine 5 phosphorylation in A549 cells overexpressing CDK7-mutant (C312S). Kind of test: Imaging-based cellular RNA PolII Ser5 phosphorylation assay in A549 cells overexpressing CDK7-mutant (C312S). It counts as cell-based, human. The note with it: RNA PolII Ser5 phosphorylation, averaged over all measurements; for IC50: Homo sapiens, A549, A549 cells overexpressing CDK7-mutant (C312S), read-out: CDK7_A549 mutant hCDK7(pIC50) (converted); for CDK7_A549 mutant hCDK7(pIC50): A549 cells overexpressing CDK7-mutant (C312S). In a few lines:
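A549 cells overexpressing CDK7 C312S (with endogenous wild-type CDK7) were treated with compound for 3 h at 37 °C in 1% FBS medium. Phospho-Rpb1 CTD Ser5 was immunostained after fixation and imaged. IC50 came from curve fit of % control, normalised to DMSO and 10 μM reference-compound controls.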

The target in test [3] is CDK7/cyclinH/MAT1 trimeric complex (Homo sapiens, UniProt P50613). Kind of test: In vitro CDK7 assay, potency of irreversible covalent inhibitors (kinact/KI), coupled PK/LDH ADP readout at 340 nm. The note with it: for Ki: CDK7 (20 nM enz.) (KI, μM); for kinact: read-out: CDK7 (20 nM enz.) (kinact, s^−1), 20 nM enzyme.
Setting [4] is: read-out: CDK7 (20 nM enz.) (kinact/KI, M^−1*s^−1), 20 nM enzyme.

From patent publication US20240254138A1, “TRICYCLIC PYRIMIDINES AS CYCLIN-DEPENDENT KINASE 7 (CDK7) INHIBITORS” (JANSSEN PHARMACEUTICA NV, priority 2021, published 2024) come the findings set out here.

Where two headings read alike, the source gives them in different places. Where only a bound is given, the exact number is not on record here.

Sequence of CDK7/cyclinH/MAT1 trimeric complex (P50613 whole entry): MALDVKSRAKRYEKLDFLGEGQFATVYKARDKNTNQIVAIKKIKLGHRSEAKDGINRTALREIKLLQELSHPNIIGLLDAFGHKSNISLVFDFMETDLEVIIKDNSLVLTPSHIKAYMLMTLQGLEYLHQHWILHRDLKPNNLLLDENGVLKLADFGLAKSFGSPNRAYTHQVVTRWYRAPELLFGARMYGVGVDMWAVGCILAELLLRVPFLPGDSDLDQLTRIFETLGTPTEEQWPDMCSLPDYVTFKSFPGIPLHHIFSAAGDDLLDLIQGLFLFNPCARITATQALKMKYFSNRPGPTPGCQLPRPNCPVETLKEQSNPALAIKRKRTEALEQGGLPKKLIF
Sequence of CDK7/cyclinH/MAT1 trimeric complex (P51946 whole entry partner): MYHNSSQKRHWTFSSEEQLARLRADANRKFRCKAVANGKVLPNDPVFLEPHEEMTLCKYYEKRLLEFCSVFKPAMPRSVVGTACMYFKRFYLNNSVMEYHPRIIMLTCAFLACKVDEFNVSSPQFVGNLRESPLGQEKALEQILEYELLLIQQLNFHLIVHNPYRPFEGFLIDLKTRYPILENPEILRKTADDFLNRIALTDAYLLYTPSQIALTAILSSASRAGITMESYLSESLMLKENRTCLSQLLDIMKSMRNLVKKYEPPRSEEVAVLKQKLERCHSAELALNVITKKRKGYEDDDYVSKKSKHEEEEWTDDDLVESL
Sequence of CDK7/cyclinH/MAT1 trimeric complex (P51948 whole entry partner): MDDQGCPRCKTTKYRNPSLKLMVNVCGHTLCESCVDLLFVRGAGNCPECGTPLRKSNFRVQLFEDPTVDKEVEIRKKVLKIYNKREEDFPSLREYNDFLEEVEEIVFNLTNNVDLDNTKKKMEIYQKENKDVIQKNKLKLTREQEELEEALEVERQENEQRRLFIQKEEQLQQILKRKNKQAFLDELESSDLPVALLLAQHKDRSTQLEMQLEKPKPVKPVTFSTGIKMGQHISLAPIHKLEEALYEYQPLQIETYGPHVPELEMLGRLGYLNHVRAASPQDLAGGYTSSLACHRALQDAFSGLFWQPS

`C=CC(=O)N1CC(N2CC[C@@H](c3ccc4c(c3)Nc3nccc(N5CCOCC5)c3CO4)[C@@H](C)C2)C1` (mixture of isomers) [Compound 70]: the IC50 is 145 nM in test [1] and above 10 µM in test [2]. In test [3] (read-out: CDK7 (20 nM enz.) (kobs/[I], M^−1*s^−1), 20 nM enzyme), the kinact/KI turned out to be 634 M⁻¹ s⁻¹.
With `C=CC(=O)N1CC(N2CC[C@@H](c3ccc4c(c3)Nc3nccc(N5CCOCC5)c3CO4)[C@H](O)C2)C1` (mixture of isomers) [Compound 72], the IC50 was 589 nM in test [1] and above 10 µM in test [2]. The Ki in test [3] (20 nM enzyme) was found to be 0.412 µM. In test [3], the kinact was 6.82e-05 s⁻¹. The kinact/KI in test [3] (setting [4]) was found to be 166 M⁻¹ s⁻¹.
With `C=CC(=O)N1CC[C@H](N2CC(c3cc(C)c4c(c3)Nc3nccc(C5CCOCC5)c3CO4)C2)[C@H](F)C1` (mixture of isomers) [Compound 200], the figures for the IC50 in test [1] and in test [2] were 93.3 nM and around 10 µM, respectively. The Ki in test [3] (20 nM enzyme) worked out at 0.0506 µM. Moreover, the kinact in test [3] came to 4.11e-05 s⁻¹. Further, the kinact/KI in test [3] (setting [4]) came out at 812 M⁻¹ s⁻¹.
Consider `C=CC(=O)N1CC[C@@H](N2CC(c3cc(C)c4c(c3)Nc3nccc(-c5cnn(C)c5)c3CO4)C2)[C@@H](F)C1` (mixture of isomers) [Compound 201], for which the IC50 in test [1] was 89.1 nM; in test [2] it was around 10 µM. The compound also had a Ki in test [3] (20 nM enzyme) of 0.0701 µM. For the same compound, in test [3], the kinact came to 3.6e-05 s⁻¹. Moreover, the kinact/KI in test [3] (setting [4]) was 514 M⁻¹ s⁻¹.
Taken in the same sequence, the figures for `C=CC(=O)N1CC[C@@H](N2CC(c3cc(C)c4c(c3)Nc3nccc(N5CCOCC5)c3CO4)C2)[C@@H](F)C1` (mixture of isomers) [Compound 202] were 107 nM, above 10 µM, 0.0239 µM, 3.55e-05 s⁻¹ and 1490 M⁻¹ s⁻¹.
For the compound `C=CC(=O)N1CC[C@@H](N2CC(c3cc(C)c4c(c3)Nc3nccc(-c5cnn(C)c5)c3CO4)C2)[C@H](F)C1` (mixture of isomers) [Compound 203], the values for the IC50 in test [1] and in test [2] were 81.3 nM and above 10 µM, respectively. Further, the Ki in test [3] (20 nM enzyme) came out at 0.0523 µM. Besides, in test [3], the kinact came out at 4.19e-05 s⁻¹. The kinact/KI in test [3] (setting [4]) is 802 M⁻¹ s⁻¹.
With `C=CC(=O)N1CC[C@@H](N2CC(c3cc(C)c4c(c3)Nc3nccc(N5CCOCC5)c3CO4)C2)[C@H](F)C1` (mixture of isomers) [Compound 207], the IC50 in test [1] is 83.2 nM; in test [2], above 10 µM. Moreover, the Ki in test [3] (20 nM enzyme) stood at 0.0443 µM. Also, the kinact in test [3] turned out to be 3.83e-05 s⁻¹. Moreover, the kinact/KI in test [3] (setting [4]) was determined as 865 M⁻¹ s⁻¹.
In the case of `C=CC(=O)N1CC[C@H](N2CC(c3cc4c(c(C)n3)OCc3c(-c5cnn(C)c5)ccnc3N4)C2)[C@@H](F)C1` (mixture of isomers) [Compound 212], the IC50 was 398 nM in test [1] and above 10 µM in test [2]. This compound also returned a Ki in test [3] (20 nM enzyme) of 0.2 µM. Also, the kinact in test [3] was 2.94e-05 s⁻¹. Besides, the kinact/KI in test [3] (setting [4]) turned out to be 147 M⁻¹ s⁻¹.
For the compound `C=CC(=O)N1CC[C@H](N2CC(c3cc4c(c(C)n3)OCc3c(-c5cnn(C)c5)ccnc3N4)C2)[C@H](F)C1` (mixture of isomers) [Compound 213], the figures for the IC50 in test [1] and in test [2] were 251 nM and above 10 µM, respectively. In test [3] (20 nM enzyme), this compound registered a Ki of 0.267 µM. Also, in test [3], the kinact worked out at 4.9e-05 s⁻¹. In addition, the kinact/KI in test [3] (setting [4]) amounted to 183 M⁻¹ s⁻¹.
For `C=CC(=O)N1CC[C@@H](N2CC(c3cc4c(c(C)n3)OCc3c(N5CCOCC5)ccnc3N4)C2)[C@H](F)C1` (mixture of isomers) [Compound 220], the IC50 in test [1] was 631 nM; in test [2], above 10 µM. The Ki in test [3] (20 nM enzyme) came out at 0.114 µM. Also, the kinact in test [3] is 2.74e-05 s⁻¹. For the same compound, the kinact/KI in test [3] (setting [4]) was determined as 240 M⁻¹ s⁻¹.
Turning to `C=CC(=O)N1CC(N2CC[C@H](c3ccc4c(c3)Nc3nccc(N5CCOCC5)c3CO4)[C@@H](F)C2)C1` (mixture of isomers) [Compound 226], the “CDK7_A549 Wild-type CDK7 (pIC50)” value in test [1] stood at 6.55. Besides, in test [2], the “CDK7_A549 mutant hCDK7(pIC50)” value was below 5. Moreover, in test [3] (20 nM enzyme), the “CDK7 (20 nM enz.) (kinact/KI, M^−1*s^−1)” value was found to be 100.867 M⁻¹ s⁻¹ and the Ki is 0.67 µM. In addition, in test [3], the kinact came out at 6.76e-05 s⁻¹.
Turning to `C=CC(=O)N1CC(N2CC[C@@H](c3ccc4c(c3)Nc3nccc(N5CCOCC5)c3CO4)[C@@H](O)C2)C1` (mixture of isomers) [Compound 228], the figures for the IC50 in test [1] and in test [2] were 178 nM and above 10 µM, respectively. This compound returned a Ki in test [3] (20 nM enzyme) of 0.129 µM. Further, the kinact in test [3] stood at 6.25e-05 s⁻¹. In addition, the kinact/KI in test [3] (setting [4]) was 486 M⁻¹ s⁻¹.
With `C=CC(=O)N1CC[C@H](N2CC(c3cc4c(c(C)n3)OCc3c(C5CCOCC5)ccnc3N4)C2)[C@H](F)C1` (mixture of isomers) [Compound 236], the figures for the IC50 in test [1] and in test [2] were 162 nM and 7.41 µM, respectively. In addition, the Ki in test [3] (20 nM enzyme) turned out to be 0.084 µM. Also, in test [3], the kinact came out at 3.05e-05 s⁻¹. Besides, the kinact/KI in test [3] (setting [4]) was found to be 362 M⁻¹ s⁻¹.
For the compound `C=CC(=O)N1CC[C@H](N2CC(c3cc4c(c(C)n3)OCc3c(C5CCOCC5)ccnc3N4)C2)[C@@H](F)C1` (mixture of isomers) [Compound 242], the IC50 in test [1] is 316 nM; in test [2], above 10 µM. Besides, the Ki in test [3] (20 nM enzyme) was found to be 0.129 µM. Moreover, the kinact in test [3] is 2.7e-05 s⁻¹. Also, the kinact/KI in test [3] (setting [4]) amounted to 209 M⁻¹ s⁻¹.
Take `CC#CC(=O)N1CCC(N2CC(c3cc(C#N)c4c(c3)Nc3nccc(N5CCOCC5)c3[C@@H](C)O4)C2)C1` (mixture of isomers) [Compound 493]: the IC50 in test [1] is 120 nM; in test [2], 5.89 µM. Besides, in test [3] (setting [4]), the kinact/KI was 397 M⁻¹ s⁻¹.
For the compound `CC#CC(=O)N1CCC(N2CC(c3cc(C#N)c4c(c3)Nc3nccc(N5CCOCC5)c3[C@H](C)O4)C2)C1` (mixture of isomers) [Compound 494], the IC50 was 4070 nM in test [1] and above 10 µM in test [2]. The kinact/KI in test [3] (setting [4]) amounted to 3.14 M⁻¹ s⁻¹.
In the case of `CC#CC(=O)N1CCC(n2cc(-c3cc(C)c4c(c3)Nc3nccc(N5CCOCC5)c3CO4)cn2)CC1` [Compound 381], the IC50 in test [1] is 372 nM; in test [2] it was 6.92 µM.
For `C=CC(=O)N1CC(N2CCC(c3cc4c(c(P(C)(C)=O)n3)OCc3c(N5CCOCC5)ccnc3N4)CC2)C1` [Compound 383], the figures for the IC50 in test [1] and in test [2] were above 10000 nM and above 10 µM, respectively.
For the compound `C=CC(=O)N1CCC(n2cc(-c3cc4c(c(C)n3)OCc3c(N5CCOCC5)ccnc3N4)cn2)CC1` [Compound 390], the IC50 in test [1] was 214 nM; in test [2], 8.71 µM.
On the same counts, the results for `C=CC(=O)N1CCC(Oc2cc(-c3cc4c(c(C)n3)OCc3c(N5CCOCC5)ccnc3N4)ccn2)CC1` [Compound 407] are 1910 nM and 7.76 µM.
For the compound `C=CC(=O)N1CCC(n2ccc(-c3ccc4c(c3)OCc3c(N5CCOCC5)ccnc3N4)cc2=O)CC1` [Compound 408], the IC50 in test [1] was above 10000 nM; in test [2] it was above 10 µM.
With `CC#CC(=O)N1CCC(Oc2cc(-c3cc4c(c(C)n3)OCc3c(N5CCOCC5)ccnc3N4)ccn2)CC1` [Compound 409], the IC50 in test [1] is 1450 nM; in test [2], 7.08 µM.
`CC#CC(=O)N1CCC(n2ccc(-c3ccc4c(c3)OCc3c(N5CCOCC5)ccnc3N4)cc2=O)CC1` [Compound 412]: the IC50 in test [1] was 9770 nM; in test [2], above 10 µM.
Taken in the same sequence, the figures for `Cc1nc(C2CCN(C3CN(C(=O)/C=C/C(=O)O)C3)CC2)cc2c1OCc1c(-c3cnn(C)c3)ccnc1N2` [Compound 432] were above 10000 nM and above 10 µM.
On the same counts, the results for `CC#CC(=O)N1CCC(C2CN(c3cc4c(c(C)n3)OCc3c(N5CCOCC5)ccnc3N4)C2)CC1` [Compound 451] are 302 nM and above 10 µM.
`C=CC(=O)N1CCC2(CC1)CCN(c1cc3c(c(C)n1)OCc1c(-c4cnn(C)c4)ccnc1N3)CC2` [Compound 479]: the IC50 in test [1] was above 10000 nM; in test [2], above 10 µM.
On to `CC#CC(=O)N1CCC(N2CC(c3cc4c(c(C#N)n3)OC(C)c3c(N5CCOCC5)ccnc3N4)C2)CC1` (stereo not shown) [Compound 511], for which the figures for the IC50 in test [1] and in test [2] were 115 nM and 5.62 µM, respectively.
As for `CC#CC(=O)N1CC(N2CCC(c3cc4c(c(C#N)n3)OC(C)c3c(N5CCOCC5)ccnc3N4)CC2)C1` (stereo not shown) [Compound 514], the IC50 in test [1] is 324 nM; in test [2], above 10 µM.
As to `C/C=C/C(=O)N1CC(N2CCC(c3cc4c(c(C)n3)OCc3c(-c5cnn(C)c5)ccnc3N4)CC2)C1` [Compound 537], the IC50 in test [1] is above 10000 nM; in test [2] it was above 10 µM.
On to `CC#CC(=O)N1CC(N2CCC(c3cc4c(c(C)n3)OCc3c(-c5cnn(C)c5)ccnc3N4)CC2)C1` [Compound 538], for which the “CDK7_A549 Wild-type CDK7 (pIC50)” value in test [1] is 6.49. In addition, the “CDK7_A549 mutant hCDK7(pIC50)” value in test [2] is below 5.
Turning to `CC#CC(=O)N1CCC(N2CC(c3nc(C)c4c(n3)Nc3nccc(N5CCOCC5)c3[C@@H](C)O4)C2)CC1` [Compound 546], the IC50 was 2750 nM in test [1] and above 10 µM in test [2].
As for `CC#CC(=O)N1CCC(N2CC(c3nc(C)c4c(n3)Nc3nccc(N5CCOCC5)c3[C@H](C)O4)C2)CC1` [Compound 547], the IC50 in test [1] was above 10000 nM; in test [2] it was above 10 µM.
